According to US9475815B2, “Substituted benzothienyl-pyrrolotriazines and uses thereof” (Bayer Intellectual Property GmbH, priority 2012, dated 2016):
Structures can show the parent of a compound that is named as a salt.

Key:
human mTOR = human mTOR (Homo sapiens (Human), UniProt P42345); experiment: mTOR kinase assay (TR-FRET, for comparative purposes); assay type: biochemical; conditions: for inhibition at 1 µM: read-out: mTOR % inhibition @ 1 μM, 1 μM test compound, 40 μM ATP, mean values; for mTOR % inhibition @ 1 μM: 1 μM test compound, 40 μM ATP, mean values
human mTOR, sequence (P42345 1360-2549): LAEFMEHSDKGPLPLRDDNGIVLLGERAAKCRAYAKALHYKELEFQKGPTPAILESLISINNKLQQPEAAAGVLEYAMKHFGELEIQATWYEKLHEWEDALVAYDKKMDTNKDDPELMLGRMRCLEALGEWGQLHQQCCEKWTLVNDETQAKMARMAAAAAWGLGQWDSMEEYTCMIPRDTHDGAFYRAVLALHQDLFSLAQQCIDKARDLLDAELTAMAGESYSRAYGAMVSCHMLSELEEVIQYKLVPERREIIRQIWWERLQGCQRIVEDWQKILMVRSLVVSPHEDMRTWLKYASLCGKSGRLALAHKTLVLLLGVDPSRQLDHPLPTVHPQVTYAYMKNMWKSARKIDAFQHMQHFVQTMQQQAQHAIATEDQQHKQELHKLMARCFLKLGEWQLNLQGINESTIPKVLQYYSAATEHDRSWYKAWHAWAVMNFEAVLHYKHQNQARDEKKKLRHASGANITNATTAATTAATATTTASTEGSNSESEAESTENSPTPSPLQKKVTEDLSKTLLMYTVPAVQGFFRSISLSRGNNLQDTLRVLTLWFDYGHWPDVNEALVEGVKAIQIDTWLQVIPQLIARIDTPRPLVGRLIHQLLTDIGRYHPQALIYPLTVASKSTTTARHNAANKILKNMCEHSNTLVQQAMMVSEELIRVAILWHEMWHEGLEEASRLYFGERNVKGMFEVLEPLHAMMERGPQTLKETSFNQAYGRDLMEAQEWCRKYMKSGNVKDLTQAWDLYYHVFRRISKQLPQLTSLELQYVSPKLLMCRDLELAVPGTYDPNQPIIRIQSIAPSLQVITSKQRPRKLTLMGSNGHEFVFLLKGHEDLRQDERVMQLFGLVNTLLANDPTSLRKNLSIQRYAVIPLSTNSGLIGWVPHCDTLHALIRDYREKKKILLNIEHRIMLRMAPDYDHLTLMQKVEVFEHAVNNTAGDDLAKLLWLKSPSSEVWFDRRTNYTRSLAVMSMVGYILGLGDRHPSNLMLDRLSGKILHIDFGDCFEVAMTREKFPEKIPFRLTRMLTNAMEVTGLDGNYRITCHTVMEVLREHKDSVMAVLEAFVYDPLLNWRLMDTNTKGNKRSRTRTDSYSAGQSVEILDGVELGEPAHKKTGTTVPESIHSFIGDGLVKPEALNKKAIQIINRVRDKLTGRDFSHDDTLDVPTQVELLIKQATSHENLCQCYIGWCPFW
Protocol: mTOR inhibitory activity of the compounds of the present invention was quantified employing the TR-FRET based mTOR assay as described in the following paragraphs:
Test compounds were dissolved in DMSO to generate 10 mM stock solutions. These solutions were first 10-fold diluted by 100% DMSO to get 1 mM solutions in 100% DMSO, then 100-fold diluted by 50% DMSO to get 10 μM solutions in 50% DMSO.
(final concentration in the 10 μl assay volume=1 nM) in FRET buffer.
For this, the fluorescence emissions at 495 nm and 520 nm after excitation at 340 nm was measured in an Envision 2104 multilabel reader (Perkin-Elmer).

human FGFR-3 = human FGFR-3 (Homo sapiens (Human), UniProt P22607); experiment: FGFR-3 kinase assay (TR-FRET); assay type: biochemical; conditions: 10 μM ATP, 15 min pre-incubation with enzyme
human FGFR-3, sequence (P22607 397-806): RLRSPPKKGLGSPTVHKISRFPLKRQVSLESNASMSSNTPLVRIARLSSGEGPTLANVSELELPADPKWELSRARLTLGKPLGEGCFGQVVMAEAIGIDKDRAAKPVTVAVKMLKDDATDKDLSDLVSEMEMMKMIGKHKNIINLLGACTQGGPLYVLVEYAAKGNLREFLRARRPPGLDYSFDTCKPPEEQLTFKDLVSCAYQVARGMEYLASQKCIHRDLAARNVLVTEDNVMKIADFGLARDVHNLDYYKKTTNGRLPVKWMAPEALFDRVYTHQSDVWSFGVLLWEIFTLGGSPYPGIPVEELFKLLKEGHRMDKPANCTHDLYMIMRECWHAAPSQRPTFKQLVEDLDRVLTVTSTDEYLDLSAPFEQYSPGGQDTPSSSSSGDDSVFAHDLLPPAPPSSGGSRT

human FGFR-1 = human FGFR-1 (Homo sapiens, UniProt P11362); experiment: FGFR-1 high ATP kinase assay (TR-FRET)
human FGFR-1, sequence (P11362 22-822 limits assumed): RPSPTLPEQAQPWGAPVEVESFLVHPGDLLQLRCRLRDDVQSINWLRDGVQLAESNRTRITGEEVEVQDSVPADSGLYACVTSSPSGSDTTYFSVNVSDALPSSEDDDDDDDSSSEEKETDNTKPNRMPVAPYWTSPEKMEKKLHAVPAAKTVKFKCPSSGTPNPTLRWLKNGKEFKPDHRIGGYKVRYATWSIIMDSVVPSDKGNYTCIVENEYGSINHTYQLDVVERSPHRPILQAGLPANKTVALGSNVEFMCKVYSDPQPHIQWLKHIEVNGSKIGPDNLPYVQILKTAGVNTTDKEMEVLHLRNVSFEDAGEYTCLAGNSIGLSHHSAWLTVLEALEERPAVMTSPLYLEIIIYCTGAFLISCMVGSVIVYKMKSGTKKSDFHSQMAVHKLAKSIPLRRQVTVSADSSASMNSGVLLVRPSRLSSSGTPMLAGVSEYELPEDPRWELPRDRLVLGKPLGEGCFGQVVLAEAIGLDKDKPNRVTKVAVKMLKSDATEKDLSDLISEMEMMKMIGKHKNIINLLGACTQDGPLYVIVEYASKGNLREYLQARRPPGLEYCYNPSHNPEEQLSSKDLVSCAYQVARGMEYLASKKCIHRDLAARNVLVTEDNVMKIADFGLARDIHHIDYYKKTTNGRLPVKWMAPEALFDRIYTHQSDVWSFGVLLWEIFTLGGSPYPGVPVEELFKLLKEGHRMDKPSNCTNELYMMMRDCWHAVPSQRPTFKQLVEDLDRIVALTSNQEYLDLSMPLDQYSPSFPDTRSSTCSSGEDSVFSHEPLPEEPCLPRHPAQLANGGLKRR

Row | Structure (SMILES) | inhibition at 1 µM (human mTOR) [%] | IC50 (human FGFR-3) [nM] | IC50 (human FGFR-1) [nM] | mTOR % inhibition @ 1 μM (human mTOR)
1 | COc1cc(C)cc2cc(-c3cc(COC[C@H](C)N)n4ncnc(N)c34)sc12 [Example 111] | 1.1 | 85.6 | 82.2 | –
2 | COc1cc(C)cc2cc(-c3cc(COC[C@@H]4CCCN4)n4ncnc(N)c34)sc12 [Example 109] | – | 37.1 | 65.6 | no inhib. effect detect.
3 | CCNC(=O)COCc1cc(-c2cc3cc(C)cc(OC)c3s2)c2c(N)ncnn12 [Example 114] | 27.7 | 30.5 | 65.3 | –
4 | COc1cc(C)cc2cc(-c3cc(CNCCO)n4ncnc(N)c34)sc12 [Example 72] | – | 47.2 | 65 | no inhib. effect detect.
5 | COc1cc(C)cc2cc(-c3cc(C(=O)N4CCNC(C(N)=O)C4)n4ncnc(N)c34)sc12 (stereo not drawn) [Example 102] | 12.8 | 89.6 | 48.8 | –
6 | COc1cc(C)cc2cc(-c3cc(CNCC(C)(C)N4CCOCC4)n4ncnc(N)c34)sc12 [Example 75] | 18.6 | 115 | 74.3 | –
7 | COc1cc(C)cc2cc(-c3cc(COCCN4CCOC4=O)n4ncnc(N)c34)sc12 [Example 116] | 28 | 71.5 | 90.3 | –
8 | COc1cc(C)cc2cc(-c3cc(CNC4CCS(=O)(=O)C4)n4ncnc(N)c34)sc12 (stereo not drawn) [Example 78] | 35.6 | 95.8 | 86.6 | –
9 | COc1cc(C)cc2cc(-c3cc(CN4CCCC4c4ccc(C)cc4)n4ncnc(N)c34)sc12 (stereo not drawn) [Example 79] | 16.7 | 48.6 | 93 | –
10 | COc1cc(C)cc2cc(-c3cc(CN4CC(O)C(NCCO)C4)n4ncnc(N)c34)sc12 (stereo not drawn) [Example 21] | 37.6 | 8 | 13.2 | –
11 | COc1cc(C)cc2cc(-c3cc(CNC4CCN(C)CC4)n4ncnc(N)c34)sc12 [Example 69] | 4.6 | 59.9 | 59.5 | –
12 | COc1cc(C)cc2cc(-c3cc(CO[C@@H]4CCNC4)n4ncnc(N)c34)sc12 [Example 118] | 18.4 | 45 | 26.1 | –
13 | COc1cc(C)cc2cc(-c3cc(CNC4CCN(C(C)C)CC4)n4ncnc(N)c34)sc12 [Example 80] | 3 | 120 | 93.4 | –
14 | COc1cc(C)cc2cc(-c3cc(CN4CCNC(=O)C4(C)C)n4ncnc(N)c34)sc12 [Example 11, 4-{[4-Amino-5-(7-methoxy-5-methyl-1-benzothiophen-2-yl)pyrrolo[2,1-f][1,2,4]triazin-7-yl]-methyl}-3,3-dimethylpiperazin-2-one] | 27.8 | 146 | 95 | –
15 | COc1cc(C)cc2cc(-c3cc(CNC4CC4)n4ncnc(N)c34)sc12 [Example 81] | 44.7 | 110 | 93.4 | –
16 | COc1cc(C)cc2cc(-c3cc(C(=O)N4CC[C@](C)(N)C4)n4ncnc(N)c34)sc12 [Example 97, [4-Amino-5-(7-methoxy-5-methyl-1-benzothiophen-2-yl)pyrrolo[2,1-f][1,2,4]triazin-7-yl][(3S)-3-amino-3-methylpyrrolidin-1-yl]methanone dihydrochloride] | 16.7 | 9.9 | 4.7 | –
17 | COc1cc(C)cc2cc(-c3cc(CN4CCN(CC(N)=O)CC4)n4ncnc(N)c34)sc12 [Example 64] | 28.2 | 56.4 | 48.9 | –
18 | COc1cc(C)cc2cc(-c3cc(CN4CCN(C(N)=O)CC4)n4ncnc(N)c34)sc12 [Example 68] | 43.1 | 29.3 | 55 | –
19 | COc1cc(C)cc2cc(-c3cc(CN4CC(N(C)C)C4)n4ncnc(N)c34)sc12 [Example 66] | 5.9 | 67.2 | 49.6 | –

Row | Structure (SMILES) | inhibition at 1 µM (human mTOR) [%] | IC50 (human FGFR-3) [nM] | IC50 (human FGFR-1) [nM] | mTOR % inhibition @ 1 μM (human mTOR)
20 | COc1cc(C)cc2cc(-c3cc(CN4CCC(O)CC4)n4ncnc(N)c34)sc12 [Example 88] | 29.5 | 21.3 | 15.7 | –
21 | COc1cc(C)cc2cc(-c3cc(CN4CC(N5CCCC5)C4)n4ncnc(N)c34)sc12 [Example 71] | 21.5 | 79.3 | 63.4 | –
22 | COc1cc(C)cc2cc(-c3cc(CN4CCC[C@@H](N)C4)n4ncnc(N)c34)sc12 [Example 55] | 24.6 | 18.7 | 16.2 | –
23 | COc1cc(C)cc2cc(-c3cc(CN4CC[C@@H](O)C4)n4ncnc(N)c34)sc12 [Example 84] | 15.3 | 39.1 | 38.9 | –
24 | COc1cc(C)cc2cc(-c3cc(CNC4CCCC4O)n4ncnc(N)c34)sc12 (stereo not drawn) [Example 83] | 18.3 | 97.9 | 98.6 | –
25 | COCCN(C)Cc1cc(-c2cc3cc(C)cc(OC)c3s2)c2c(N)ncnn12 [Example 76] | 29.9 | 73.7 | 83 | –
26 | COc1cc(C)cc2cc(-c3cc(Cn4ccnc4C#N)n4ncnc(N)c34)sc12 [Example 122] | 35.7 | 65.6 | 71.8 | –
27 | COc1cc(C)cc2cc(-c3cc(CN4CC[C@@H](N(C)C)C4)n4ncnc(N)c34)sc12 [Example 90] | 22.7 | 30.3 | 26 | –
28 | COc1cc(C)cc2cc(-c3cc(CNC(C)(C)CN4CCCC4)n4ncnc(N)c34)sc12 [Example 57] | 16.2 | 53.3 | 32.5 | –
29 | COc1cc(C)cc2cc(-c3cc(COCCN)n4ncnc(N)c34)sc12 [Example 120] | 14.8 | 53.9 | 50.8 | –
30 | COc1cc(C)cc2cc(-c3cc(CN4CCC(N)CC4)n4ncnc(N)c34)sc12 [Example 26] | – | 130 | 82.6 | no inhib. effect detect.
31 | COc1cc(C)cc2cc(-c3cc(C(=O)N4CCC(O)CC4)n4ncnc(N)c34)sc12 [Example 101] | 24.9 | 29.1 | 29.8 | –
32 | COc1cc(C)cc2cc(-c3cc(C(=O)N4CCNC(C)(C)C4)n4ncnc(N)c34)sc12 [Example 103] | 9.2 | 114 | 51.7 | –
33 | CNC(=O)CNCc1cc(-c2cc3cc(C)cc(OC)c3s2)c2c(N)ncnn12 [Example 28] | 6.9 | 63.7 | 83.2 | –
34 | COc1cc(C)cc2cc(-c3cc(COCC(C)N)n4ncnc(N)c34)sc12 (stereo not drawn) [Example 119] | 25.1 | 29.7 | 26.7 | –
35 | COc1cc(C)cc2cc(-c3cc(CN4CC5CNCC5C4)n4ncnc(N)c34)sc12 (stereo not drawn) [Example 23] | 28.1 | 69.4 | 19.3 | –
36 | COc1cc(C)cc2cc(-c3cc(CN4CC5CC5(N)C4)n4ncnc(N)c34)sc12 (stereo not drawn) [Example 27] | 2.4 | 60.8 | 42.2 | –
37 | CCN(Cc1cc(-c2cc3cc(C)cc(OC)c3s2)c2c(N)ncnn12)C(C)CO (stereo not drawn) [Example 77] | 20.2 | 82.3 | 84.1 | –
38 | COc1cc(C)cc2cc(-c3cc(C(=O)N4CCC(N(C)C)C4)n4ncnc(N)c34)sc12 (stereo not drawn) [Example 100] | 15.9 | 35.9 | 20.7 | –
